The target in one assay is T1, OSMR and gp130 (Homo sapiens, UniProt P40189).
T1 construct: FLAG; expressed in transfected cells; host or cells: adult human chondrocytes
T1 sequence (P40189 23-918): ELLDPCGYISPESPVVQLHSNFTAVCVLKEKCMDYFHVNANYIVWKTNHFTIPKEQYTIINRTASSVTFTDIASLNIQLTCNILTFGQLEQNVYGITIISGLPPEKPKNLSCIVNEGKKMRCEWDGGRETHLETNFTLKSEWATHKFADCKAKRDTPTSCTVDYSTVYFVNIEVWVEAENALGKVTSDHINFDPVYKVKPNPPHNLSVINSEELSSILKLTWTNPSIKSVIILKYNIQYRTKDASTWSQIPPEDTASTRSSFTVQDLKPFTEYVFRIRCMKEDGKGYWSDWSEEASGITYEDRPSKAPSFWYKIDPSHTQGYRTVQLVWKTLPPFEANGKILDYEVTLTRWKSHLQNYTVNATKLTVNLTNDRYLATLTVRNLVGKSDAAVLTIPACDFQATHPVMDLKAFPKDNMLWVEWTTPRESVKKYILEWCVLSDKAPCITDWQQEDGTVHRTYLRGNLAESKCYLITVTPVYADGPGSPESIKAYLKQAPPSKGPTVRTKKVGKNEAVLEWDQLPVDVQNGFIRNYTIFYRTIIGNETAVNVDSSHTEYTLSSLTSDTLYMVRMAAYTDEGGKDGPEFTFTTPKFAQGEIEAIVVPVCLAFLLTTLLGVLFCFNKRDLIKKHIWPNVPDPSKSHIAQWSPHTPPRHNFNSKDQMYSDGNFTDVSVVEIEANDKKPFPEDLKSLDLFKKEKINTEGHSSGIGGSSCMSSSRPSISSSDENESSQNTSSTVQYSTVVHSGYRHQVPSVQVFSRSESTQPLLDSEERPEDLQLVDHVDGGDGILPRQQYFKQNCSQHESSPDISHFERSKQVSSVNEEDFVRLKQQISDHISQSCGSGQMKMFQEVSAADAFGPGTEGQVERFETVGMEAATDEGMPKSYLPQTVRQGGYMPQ
Briefly: Receptor competition, gp130-Flag pull-down, OSMR. The note with it: in the presence of OSM; IP-FLAG, WB-OSMR. The class given is cell-based. The method, then: Adult human chondrocytes transfected with gp130-Flag were incubated with various concentrations of RCGD 423 in the presence of IL-6 or OSM; levels of immoprecipitated IL-6R or OSMR were used to calculate the dissociation constant (Kd).
Adult human chondrocytes; IP-FLAG AB (transfected with gp130 FLAG plasmid), WB-OSMR.
This property would be of great interest due to the pro-inflammatory and pro-catabolic effects of these cytokines in the joint space. […] To assess whether RCGD 423 could directly compete for gp130 occupancy, human adult articular chondrocytes were transfected with tagged gp130 and then pulled down associated proteins±RCGD 423 and/or IL-6.

Assay [1] relates to adult pig articular chondrocytes. The assay is described as follows: Proteins mediating pro-inflammatory signals with or without OSM. The class given is cell-based. An excerpt: (§1) Firstly, RCGD 423 was a hit from a library; this made the depth of the discovery surrounding the technology less comprehensive. Additionally, the physical properties of RCGD 423 (solubility, potency, functional groups) could be improved. Significant gains in these areas could potentially result in a first-in-class injectable for the treatment of post-traumatic OA. Moreover, the potential risks associated with promoting MYC stabilization and proliferation in gp130^+ cells as well as large increases in active STAT3 protein was of concern. […] These compounds were then screened in adult pig articular chondrocytes and cartilage explants, seeking compounds that could inhibit the catabolic effects of OSM but not drive increases in MYC and pSTAT3 protein levels. […] Together, these preliminary data identify CX-011 (B8) as a highly anti-inflammatory, anti-catabolic alternative to RCGD 423, with increased “drug-like” properties and reduced potential molecular liabilities.

Assay [2] has as its system pig articular cartilage explants. Briefly: Matrix degradation assay, OSM-driven, pig articular cartilage explants. The class given is cell-based. The method, then:
FIG. 22A-C show matrix degradation assays.
72 hour exposure to the drug and OSM. […] Effect is concentration dependent and increases with increase in drug concentration.
as §1

In assay [3] the target is T2, gp130 (Homo sapiens, UniProt P40189).
T2 construct: endogenous in cells; host or cells: adult human articular chondrocytes (three donors)
T2 sequence (P40189 23-918): T1 sequence (P40189 23-918)
Briefly: OSM-mediated activation of gp130 in adult human articular chondrocytes. The note with it: three independent donors. The class given is cell-based. The source says: 423F is the positive control drug. Adult human articular chondrocytes from three independent donors were used to generate the results.
Adult human articular chondrocytes from three independent donors were used to generate the results.
Adult human articular chondrocytes from three independent donors were used.

In assay [4] the target is T3, gp130 (Rattus norvegicus, UniProt P40190).
T3 construct: from tissue; host or cells: rat knee joint in vivo (Sprague-Dawley wild-type in the CFA model)
T3 sequence (P40190 23-918): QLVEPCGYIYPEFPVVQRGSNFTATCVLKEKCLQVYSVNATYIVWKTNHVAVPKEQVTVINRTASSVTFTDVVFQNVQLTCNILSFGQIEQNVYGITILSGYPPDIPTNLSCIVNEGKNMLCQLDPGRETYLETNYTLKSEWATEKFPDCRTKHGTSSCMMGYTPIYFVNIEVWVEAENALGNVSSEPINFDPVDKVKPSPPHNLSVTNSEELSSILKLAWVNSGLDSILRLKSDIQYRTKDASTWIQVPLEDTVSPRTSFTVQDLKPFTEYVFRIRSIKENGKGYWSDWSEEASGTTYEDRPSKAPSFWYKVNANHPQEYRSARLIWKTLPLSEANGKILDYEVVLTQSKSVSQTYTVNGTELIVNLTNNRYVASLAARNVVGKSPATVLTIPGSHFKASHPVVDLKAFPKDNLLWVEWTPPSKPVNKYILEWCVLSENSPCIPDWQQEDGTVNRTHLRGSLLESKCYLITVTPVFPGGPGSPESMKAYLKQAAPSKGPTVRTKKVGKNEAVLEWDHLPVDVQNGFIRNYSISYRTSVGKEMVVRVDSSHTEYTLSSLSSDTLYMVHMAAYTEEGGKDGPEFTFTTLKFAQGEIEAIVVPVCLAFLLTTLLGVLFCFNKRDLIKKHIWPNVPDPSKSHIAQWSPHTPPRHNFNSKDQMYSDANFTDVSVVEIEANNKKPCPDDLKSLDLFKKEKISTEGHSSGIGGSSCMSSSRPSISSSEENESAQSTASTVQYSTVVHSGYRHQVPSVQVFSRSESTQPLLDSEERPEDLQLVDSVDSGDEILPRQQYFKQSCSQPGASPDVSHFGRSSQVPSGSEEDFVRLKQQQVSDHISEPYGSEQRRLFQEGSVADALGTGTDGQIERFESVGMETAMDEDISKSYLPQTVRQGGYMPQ
The assay is described as follows: CFA-induced systemic inflammatory response in rats, intraarticular drug. The class given is in vivo. The method, then: Rat (Sprague-Dawley wild-type) were injected with Complete Freund's Adjuvant (CFA) to induce systemic inflammatory response. Drug (805) was injected intraarticularly; multiple doses (A and B, N=3).

For another assay, the system named is adult synovial cells. Briefly: OSM-mediated cytokine secretion by adult synovial cells. The class given is cell-based. The note with it: 10 μM. The method, then:
Adult synovial cells from three independent donors were used. Molecule 805 was used at 10 μM.

Assay [5] can be described thus: Oral single dose, synovial inflammation in rat joints. The class given is in vivo. The settings on record: oral administration of a single dose.
A short description of assay [6]: Medial meniscal tear surgery, intra-articular injection. The class given is in vivo. The note with it: following medial meniscal tear surgery.
Assay [7] can be described thus: Survival of NZM.2328 female mice (lupus nephritis-like syndrome). The class given is in vivo. The settings on record: intraperitoneally twice weekly, 10 mg/kg.

Results on one molecule are retold here after patent US12577238B2, “Compositions and methods for modulating inflammatory and degenerative disorder” (University of Southern California, priority 2018, dated 2026).

“Also recorded” adds a separate entry of the source.

`Cc1ccc(-c2csc(NC(=O)c3ccccn3)n2)cc1` [B805]: the “competition with OSMR for gp130 occupancy / OSMR-gp130 interaction” value on OSMR and gp130 is “disrupts the interaction between OSMR and gp130 in a concentration-dependent manner”. Besides, the “increases in proteins mediating pro-inflammatory signals” value in [1] (in the presence of OSM) is on record as “strongly inhibits increases in these proteins in the presence of OSM”. Moreover, in assay [1] (without OSM), the “endogenous levels of proteins mediating pro-inflammatory signals” value is reported as “little effect”. In [2] (driven by OSM), the “breakdown of collagen and aggrecan (aggrecan-neo, collagen-neo epitopes)” value was “strongly prevent the breakdown of collagen and aggrecan; also recorded: prevents the breakdown of collagen and aggrecan”; the “increase in catalytic enzymes / induction of proteolytic gene expression” value is “prevents”. For the same molecule, the “breakdown of collagen and aggrecan (aggrecan-neo, collagen-neo epitopes)” value in assay [2] (fresh pig cartilage explants, 72 hour exposure to drug and OSM) was “strongly prevents the breakdown of collagen and aggrecan”. For the same molecule, at gp130 [3], the “OSM-mediated activation of downstream effector JAK2” value is on record as “strongly inhibits” and the “OSM-mediated activation of gp130” value is given as “inhibit OSM-mediated activation of gp130; also recorded: strongly inhibits OSM-mediated activation of gp130”. Further, on gp130 [4], the “activation of gp130 in sick animals” value is on record as “prolonged effect preventing activation gp130 in sick animals”. Also, the “inflammatory response in vivo” value on gp130 [4] (multiple doses, N=3) is “inhibits inflammatory response in vivo in a dose-dependent manner”. Moreover, in the assay on adult synovial cells, the “OSM-mediated secretion of IL-6” value is on record as “strongly inhibits” and the “OSM-mediated secretion of TNF-α” value is “strongly inhibits”. Also, the synovial inflammation entry in assay [5] is recorded as “reduced synovial inflammation in rat joints”. Further, the cartilage degeneration entry in assay [6] is given as “reduces cartilage degeneration”. For the same molecule, the survival result in assay [7] is given as “survive longer”.
